# Test results as given in patent US20240049711A1, “HERBICIDE COMPOSITION AND WEED CONTROLLING METHOD” (SUMITOMO CHEMICAL COMPANY, LIMITED, priority 2020, published 2024).
# Where a name gives a salt, the structure may show the parent alone.
# Columns and labels:
# Format in all cases: in vivo
# [1] = tested on: common barnyardgrass (Echinochloa crus-galli); test: Example 214: greenhouse pot test, spray above the pot 25 days after seeding; settings: rating 0 to 100; application rate compound X 10 g/ha, chlorimuron-ethyl 16 g/ha; 216 L/ha; 18 days after spraying
# Description: A formulation was produced by dissolving a predetermined amount of chlorimuron-ethyl in DMF containing 2% Tween 20 (polyoxyethylene (20) sorbitan monolaurate) (called chlorimuron-ethyl formulation).
# After filling a plastic pot with soil, common barnyardgrass (Echinochloa crus-galli) was seeded therein and grown in a greenhouse. […] Thereafter, the weeds were grown in the greenhouse for 18 days and the herbicidal effect was estimated.
# [2] = tested on: Italian ryegrass (Lolium multiflorum); test: Example 208: greenhouse pot test, spray above the pot 21 days after seeding; settings: rating 0 to 100; application rate compound X 15 g/ha, clethodim 53 g/ha; 200 L/ha; evaluated 6 days after spraying
# Description: The compound X (55 mg) produced in Reference Production Example 1, 76.5 mg of Emulsogen TS290 (polyoxyethylene tristyryl phenyl ether, manufactured by Clariant) and 76.5 mg of Phenylsulfonat CAL (mixture of 70% calcium dodecylbenzenesulfonate and 30% iso-butanol, manufactured by Clariant) were dissolved in Solvesso 200ND (aromatic hydrocarbon, manufactured by Exxon Mobile Corporation) to make 1 ml in total, thus producing an emulsifiable concentrate (hereinafter referred to as formulation X).
# After filling a plastic pot with soil, Italian ryegrass (Loliism multiflorum) was seeded therein and grown in a greenhouse.
# [3] = tested on: Italian ryegrass (Lolium multiflorum); test: Example 209: greenhouse pot test, spray above the pot 21 days after seeding; settings: rating 0 to 100; application rate compound X 15 g/ha, pendimethalin 560 g/ha; 200 L/ha; evaluated 6 or 8 days after spraying
# Description: (§1) After filling a plastic pot with soil, Italian ryegrass (Lolium multiflorum) and giant foxtail (Setaria faberi) were seeded therein and grown in a greenhouse.
# [4] = tested on: giant foxtail (Setaria faberi); test: as above; settings: rating 0 to 100; application rate compound X 15 g/ha, pendimethalin 560 g/ha; 200 L/ha; evaluated 6 or 8 days after spraying
# Description: as §1
# [5] = tested on: Italian ryegrass (Lolium multiflorum); test: Example 212: greenhouse pot test, spray above the pot 21 days after seeding; settings: rating 0 to 100; application rate compound X 15 g/ha, glyphosate potassium salt 630 g/ha; 200 L/ha; evaluated 6 days after spraying
# Description: as §1
# [6] = tested on: giant foxtail (Setaria faberi); test: as above; settings: rating 0 to 100; application rate compound X 15 g/ha, glyphosate potassium salt 630 g/ha; 200 L/ha; evaluated 6 days after spraying
# Description: as §1
# Italian ryegrass = test: Example 213: greenhouse pot test, spray above the pot 21 days after seeding; settings: rating 0 to 100; application rate compound X 15 g/ha, glufosinate ammonium salt 297 g/ha; 200 L/ha; evaluated 8 days after spraying
# [7] = tested on: common barnyardgrass (Echinochloa crus-galli); test: Example 215: greenhouse pot test, spray above the pot 25 days after seeding; settings: rating 0 to 100; application rate compound X 10 g/ha, mesotrione 35 g/ha; 216 L/ha; 18 days after spraying
# Description: A formulation was produced by dissolving a predetermined amount of mesotrione in DMF containing 2% Tween 20 (polyoxyethylene (20) sorbitan monolaurate) (called mesotrione formulation).
# (§2) After filling a plastic pot with soil, common barnyardgrass (Echinochloa crus-galli) was seeded therein and grown in a greenhouse. […] Thereafter, the weeds were grown in the greenhouse for 18 days and the herbicidal effect was evaluated.
# [8] = tested on: common barnyardgrass (Echinochloa crus-galli); test: Example 216: greenhouse pot test, spray above the pot 25 days after seeding; settings: rating 0 to 100; application rate compound X 10 g/ha, metribuzin 105 g/ha; 216 L/ha; 18 days after spraying
# Description: A formulation was produced by dissolving a predetermined amount of metribuzin in DMF containing 2% Tween 20 (polyoxyethylene (20) sorbitan monolaurate) (called metribuzin formulation).
# as §2
# [9] = tested on: common barnyardgrass (Echinochloa crus-galli); test: Example 217: greenhouse pot test, spray above the pot 25 days after seeding; settings: rating 0 to 100; application rate (table) compound X 10 g/ha, flumioxazin 30 g/ha; 216 L/ha; 18 days after spraying
# Description: A formulation was produced by dissolving a predetermined amount of flumioxazin in DMF containing 2% Tween 20 (polyoxyethylene (20) sorbitan monolaurate) (called flumioxazin formulation).
# as §2
# [10] = tested on: common barnyardgrass (Echinochloa crus-galli); test: Example 218: greenhouse pot test, spray above the pot 25 days after seeding; settings: rating 0 to 100; application rate (table) compound X 10 g/ha, pyroxasulfone 40 g/ha; 216 L/ha; 18 days after spraying
# Description: A formulation was produced by dissolving a predetermined of pyroxasulfone in DMF containing 2% Tween 20 (polyoxyethylene (20) sorbitan monolaurate) (called pyroxasulfone formulation).
# as §2
structure (smiles),measurement,setting,value
"CCOC(=O)c1ccccc1S(=O)(=O)NC(=O)Nc1nc(Cl)cc(OC)n1 [Chlorimuron-ethyl, chlorimuron-ethyl]",Herbicidal effect on common barnyardgrass (observed value),[1],45
"CCSC(C)CC1CC(=O)C(/C(CC)=N/OC/C=C/Cl)=C(O)C1 (stereo not shown) [Clethodim, clethodim]",Herbicidal effect on Italian ryegrass (observed value),[2],10
CCOC(=O)COC(=O)C1(Oc2cc(-n3c(=O)cc(C(F)(F)F)n(C)c3=O)c(F)cc2Cl)CC1 [Compound X],Herbicidal effect on Italian ryegrass (observed value),[2],20
same,Herbicidal effect on Italian ryegrass (observed value),[3],20
same,Herbicidal effect on giant foxtail (observed value),[4],70
same,Herbicidal effect on Italian ryegrass (observed value),[5],20
same,Herbicidal effect on giant foxtail (observed value),[6],70
same,Herbicidal effect on Italian ryegrass (observed value),Italian ryegrass,20
same,Herbicidal effect on common barnyardgrass (observed value),[1],45
same,Herbicidal effect on common barnyardgrass (observed value),[7],45
same,Herbicidal effect on common barnyardgrass (observed value),[8],45
same,Herbicidal effect on common barnyardgrass (observed value),[9],45
same,Herbicidal effect on common barnyardgrass (observed value),[10],45
"C#CCN1C(=O)COc2cc(F)c(N3C(=O)C4=C(CCCC4)C3=O)cc21 [Flumioxazin, flumioxazin]",Herbicidal effect on common barnyardgrass (observed value),[9],55
"CP(=O)(O)CCC(N)C(=O)O (stereo not shown) [Glufosinate ammonium salt, glufosinate ammonium salt]",Herbicidal effect on Italian ryegrass (observed value),Italian ryegrass,80
"O=C(O)CNCP(=O)(O)O [Glyphosate potassium salt, glyphosate potassium salt]",Herbicidal effect on Italian ryegrass (observed value),[5],50
same,Herbicidal effect on giant foxtail (observed value),[6],40
"CS(=O)(=O)c1ccc(C(=O)C2C(=O)CCCC2=O)c([N+](=O)[O-])c1 [Mesotrione, mesotrione]",Herbicidal effect on common barnyardgrass (observed value),[7],40
"CSc1nnc(C(C)(C)C)c(=O)n1N [Metribuzin, metribuzin]",Herbicidal effect on common barnyardgrass (observed value),[8],8
"CCC(CC)Nc1c([N+](=O)[O-])cc(C)c(C)c1[N+](=O)[O-] [Pendimethalin, pendimethalin]",Herbicidal effect on Italian ryegrass (observed value),[3],0
same,Herbicidal effect on giant foxtail (observed value),[4],0
"Cn1nc(C(F)(F)F)c(CS(=O)(=O)C2=NOC(C)(C)C2)c1OC(F)F [Pyroxasulfone, pyroxasulfone]",Herbicidal effect on common barnyardgrass (observed value),[10],2
